Experimental data published in patent US12409156B2, “Stable aqueous hydroxycarbamide solution” (Nova Bio-Pharma Product Development LTD, priority 2018, dated 2025).

Experiments:
[1] = Rat toxicology studies; type: in vivo; conditions: compared with hydroxycarbamide (hydroxyurea)
Protocol: Importantly, the composition disclosed in U.S. Pat. No. 3,119,866 is only stable as a dry composition, after evaporation of all water. […] After this time unacceptable levels of degradation products are present in the aqueous solution. As a result, it has previously been considered that the use of pH buffers such as potassium citrate and citric acid/sodium citrate to stabilise solutions of hydroxycarbamide is not effective. At temperatures between 2° C. and 8° C., the applicant has discovered that the main degradation product of hydroxycarbamide solutions is carbamoyloxyurea. The International Conference on Harmonisation of Technical Requirements for Registration of Pharmaceuticals for Human Use (ICH) stipulates that the maximum allowable limit for any degradant in a formulation should not exceed 0.15% w/v, at therapeutic doses of hydroxycarbamide in the treatment of sickle cell disease. […] As a result, the European Medicines Agency has now accepted that carbamoyloxyurea contents of up to 0.5% w/v are acceptable.

[2] = test system: six organisms tested; test: Preservative efficacy study
Protocol: In parallel to this work, a preservative efficacy study was performed to investigate the effectiveness of the preservative system.

[3] = cited from earlier work

Row | SMILES | risk in rat toxicology studies [1] | antimicrobial activity [2] | variation of exposure for a given dosing regime ([3]; adult patients) | differences in exposure at the same mg/kg dose ([3]; paediatric patients)
1 | NC(=O)NOC(N)=O [carbamoyloxyurea] | does not pose a risk over and above hydroxycarbamide |  |  | 
2 | NC(=O)NO [hydroxycarbamide, Hydroxycarbamide] |  | able to inhibit the growth of six organisms tested | approximately five-fold | two to three-fold
